Assay results as given in patent publication US9655967B2, “Inhibition of focal adhesion kinase for control of scar tissue formation” (The Board of Trustees of the Leland Stanford Junior …, priority 2011, dated 2017).

Key:
human fibroblasts [1] = experiment: Focal adhesion formation and spreading in human fibroblasts; type: cell-based; settings: PF573228 treatment
Source text: To substantiate the importance of these findings in human tissues, we examined FAK pathways in vitro in human fibroblasts. Following the application of strain, FAK was activated within five minutes and sustained during the static strain period (FIG. 3a-b). ERK was phosphorylated after ten minutes and its activation was critically dependent on FAK, thus recapitulating the FAK-ERK mechanotransduction axis observed in vivo. Small molecule inhibition of FAK (PF573228) was used to investigate mechanically-regulated fibroblast function during wound repair. […] Additionally, cell motility (FIG. 3c) and contraction/α-SMA expression (FIG. 3d-e) were all decreased with FAK inhibition.
Fibroblast harvest. We isolated primary dermal mouse fibroblasts after overnight incubation in trypsin (Gibco/Invitrogen, Carlsbad, Calif.) followed by 1 mg mL^−1 Liberase TL (Roche, Indianapolis, Ind.). We obtained human fibroblasts from fresh tissue specimens following IRB-approved protocols at Oregon Health and Sciences University. We incubated specimens overnight in 5 mg mL^−1 dispase (Roche) followed by 0.5 mg mL^−1 collagenase type I (Roche) and 0.2 mg mL^−1 trypsin. […]
Microscopy and immunohistochemistry. […] We processed images for publication using Adobe Photoshop CS3 (Adobe Systems Incorporated, San Jose, Calif.) and two blinded investigators performed image quantification using ImageJ (NIH, Bethesda, Md.).

human fibroblasts [2] = experiment: Scratch migration assay (fibroblast motility); type: cell-based; settings: FIG. 3c
Procedure: (§1) Fibroblast harvest. We isolated primary dermal mouse fibroblasts after overnight incubation in trypsin (Gibco/Invitrogen, Carlsbad, Calif.) followed by 1 mg mL^−1 Liberase TL (Roche, Indianapolis, Ind.). We obtained human fibroblasts from fresh tissue specimens following IRB-approved protocols at Oregon Health and Sciences University. We incubated specimens overnight in 5 mg mL^−1 dispase (Roche) followed by 0.5 mg mL^−1 collagenase type I (Roche) and 0.2 mg mL^−1 trypsin. We used human cells from passages four to eight.
In vitro wound healing. We assessed fibroblast motility using a scratch migration assay, Aarabi, et al. FASEB J 21, 3250-3261 (2007).

human fibroblasts [3] = experiment: Fibroblast-populated 3D-collagen lattices (contraction, α-SMA expression); type: cell-based; settings: FIG. 3d-e
Procedure: as §1
Fibroblast-populated collagen lattices. We performed fibroblast contraction studies as previously published, Ehrlich, Methods Mol Med 78, 277-291 (2003).
Microscopy and immunohistochemistry. We incubated paraformaldehyde-fixed cells with primary antibody (pFAK-Y397 or FAK 1:200, BD Biosciences, San Jose, Calif.) followed by AlexaFluor488-conjugated secondary antibody (Molecular Probes/Invitrogen). We performed cytoskeletal staining with phalloidin-AF488 or Cy3-conjugated antibody against α-SMA (Sigma-Aldrich). We performed H&E, picrosirius red and trichrome staining (Sigma-Aldrich) on paraffin-embedded sections. […] We processed images for publication using Adobe Photoshop CS3 (Adobe Systems Incorporated, San Jose, Calif.) and two blinded investigators performed image quantification using ImageJ (NIH, Bethesda, Md.).

[4] = system: cutaneous wounds in the HTS model; experiment: Murine HTS model with daily intradermal injections; type: in vivo
Procedure: Murine HTS model. We used a murine HTS model as previously published by our group, Aarabi, et al., supra.
Microscopy and immunohistochemistry. We incubated paraformaldehyde-fixed cells with primary antibody (pFAK-Y397 or FAK 1:200, BD Biosciences, San Jose, Calif.) followed by AlexaFluor488-conjugated secondary antibody (Molecular Probes/Invitrogen). We performed cytoskeletal staining with phalloidin-AF488 or Cy3-conjugated antibody against α-SMA (Sigma-Aldrich). We performed H&E, picrosirius red and trichrome staining (Sigma-Aldrich) on paraffin-embedded sections. We used primary antibodies against FAK, MCP-1, F4/80, Ki67, and α-SMA. Immunostaining was developed with VIP, NovaRed or diaminobenzidine (Vector Laboratories, Burlingame, Calif.), or secondary fluorescent antibodies AF488 or AF594. We performed apoptotic staining using the In Situ Cell Death Detection Kit (Roche). We purchased all antibodies from Abcam Inc. (Cambridge, Mass.) unless otherwise noted. We processed images for publication using Adobe Photoshop CS3 (Adobe Systems Incorporated, San Jose, Calif.) and two blinded investigators performed image quantification using ImageJ (NIH, Bethesda, Md.).
Gene expression. We performed qPCR as previously published. We used Taqman Gene Expression Assays (Applied Biosystems, Foster City, Calif.) for in vitro qPCR.
Immunoblotting. We performed immunoblotting as previously described. We used the following antibodies: FAK (BD Biosciences), p-FAK Y397, p-FAK S732, p-ERK T202/Y204 and ERK, p-Akt S473 and Akt (Cell Signaling Technology, Inc., Danvers, Mass.), p-p38 Y182 and p38, p-JNK T183/Y185 and JNK, MCP-1 and β-actin. We obtained all antibodies from Abcam Inc. unless otherwise noted.
Intradermal injections. We administered intradermal injections (300 μL) of DMSO, 15 μM PF573228, or 150 μM PF573228 to unwounded murine skin or unloaded incisions. For HTS model experiments, we injected 15 μM PF573228 or recombinant mouse Mcp-1 (1 μg mL^−1, R&D Systems Inc.) daily between days 4 and 14 post-injury.

Molecule | formation of focal adhesions (human fibroblasts [1]) | spreading in human fibroblasts (human fibroblasts [1]) | cell motility (human fibroblasts [2]) | contraction/α-SMA expression (human fibroblasts [3]) | scar formation in vivo ([4]; 15 μM PF573228 intradermal daily, days 4 to 14 post-injury, FIG. 4a) | MCP-1-associated pathways ([4]; HTS model scars) | mechanical activation of ERK ([4]; HTS model scars) | scar matrix density ([4]; post-injury day ten scars) | attenuation of epithelial proliferation ([4]; post-injury day ten scars, p<0.001) [%] | attenuation of epithelial thickness ([4]; post-injury day ten scars, p=0.004) [%] | attenuation of dermal proliferation ([4]; post-injury day ten scars, p=0.01) [%] | fibrotic phenotype in FAK-deficient wounds ([4]; FAK KO mice, intradermal Mcp-1 1 μg mL^−1 daily, FIG. 2c-f)
CS(=O)(=O)c1cccc(CNc2nc(Nc3ccc4c(c3)CCC(=O)N4)ncc2C(F)(F)F)c1 [PF573228] | effectively inhibited | impaired | decreased | decreased | significantly reduced | blocked | significantly decreased | attenuated | 57 | 35 | 28 | –
Mcp-1: recombinant mouse Mcp-1 (monocyte chemoattractant protein-1/CCL2), R&D Systems Inc. | – | – | – | – | – | – | – | – | – | – | – | restored the fibrotic phenotype
